This is an account of results in BindingDB's records for doi:10.1021/jm00006a011 (Merck Sharp & Dohme Research Laboratories, 1995).

Structures are written as SMILES. pIC50: −log10 of the molar value.

The experiment deals with Substance-P receptor (Homo sapiens, UniProt P25103). The experiment in a line: Binding affinity at human Tachykinin receptor 1 expressed in CHO cells by [125 I][…]-substance P displacement.
Substance-P receptor, sequence (P25103 whole entry): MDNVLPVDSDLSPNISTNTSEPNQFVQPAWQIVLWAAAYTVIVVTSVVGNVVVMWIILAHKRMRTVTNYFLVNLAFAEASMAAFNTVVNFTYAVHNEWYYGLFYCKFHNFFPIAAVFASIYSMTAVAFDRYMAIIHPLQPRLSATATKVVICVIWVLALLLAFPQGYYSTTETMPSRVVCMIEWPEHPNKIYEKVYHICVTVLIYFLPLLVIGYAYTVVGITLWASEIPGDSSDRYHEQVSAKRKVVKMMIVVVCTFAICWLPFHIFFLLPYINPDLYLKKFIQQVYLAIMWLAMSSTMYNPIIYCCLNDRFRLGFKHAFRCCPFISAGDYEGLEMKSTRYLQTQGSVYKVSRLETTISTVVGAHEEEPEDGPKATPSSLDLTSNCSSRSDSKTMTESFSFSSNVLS

One may read the pIC50 as −log10 of the IC50, conventionally taken in molar units. With `O=c1oc(Cc2c[nH]c3ccccc23)c(O)n1Cc1cc(C(F)(F)F)cc(C(F)(F)F)c1`, the negative-log IC50 (pIC50) was 7.66.
